Measured values: patent US6004983A, “N-substituted azaheterocyclic compounds” (Novo Nordisk A/S, priority 1996, dated 1999)

Test system: histamine induced oedema
Assay: Histamine induced paw oedema (rat histamine paw oedema test)
Format: in vivo, rat (male Sprague-Dawley)
Settings: at 1 mg/kg, intraperitoneally 15 minutes before the anaesthetics, histamine 50 microliter, 3 mg/ml in right hind paw, swelling 20 minutes after histamine
Experimental: Compounds of formula I may be used to treat all painful, hyperalgesic and/or inflammatory conditions in which C-fibres play a pathophysiological role by eliciting neurogenic pain or inflammation, i. e.:
I. Histamine induced paw oedema
The rat histamine paw oedema test was performed essentially as described by Amann et al. (Europ. J. Pharmacol. 279, 227-231, 1995). In brief 250-300 g male Sprague-Dawley rats were anaesthetized with pentobarbital sodium, and placed on a 32 degree(Celsius) heated table. Ten minutes later histamine (50 micoliter, 3 mg/ml) was injected in the right hind paw and 20 minutes hereafter the paw swelling was determined by water plethysmography (Ugo Basile). Test compounds were administered intraperitoneally at 15 minutes before the anaesthetics.

`Cl.O=C(O)[C@H]1CCCCN1CC=C1c2ccccc2CCc2ccccc21` [Example 12, (R)-1-(2-(10,11-dihydro-5H-dibenzo[a,d]cyclohepten-5-ylidene)-1-ethyl)-2-piperidinecarboxylic acid hydrochloride] was tested. Which “% oedema inhibition (inhibition of histamine induced oedema)” value did it give?
Its value is 49%.

For `Cl.O=C(O)C1CCN(CC=C2c3ccccc3CSc3ccccc32)CC1` [Example 2, 1-(2-(6,11-Dihydrodibenzo[b,e]thiepin-11-ylidene)-1-ethyl)-4-piperidinecarboxylic acid hydrochloride], which “% oedema inhibition (inhibition of histamine induced oedema)” value is on record?
Its value is 51%.
